Measurements: patent US4036979A, “Compositions containing 4,5,6,7-tetrahydrobenz[b]thien-4-yl-ureas or derivatives and methods of enhancing growth rate” (American Cyanamid Company, priority 1976, dated 1977)

Test: Mouse Growth Regulant Tests (12-day weight gain over controls, compound in diet)
Type: in vivo, CFI female mice
Conditions: Mus musculus, feed or water, 288 h, Table IX; 400 ppm in diet
Experimental: CFI female mice from Carworth Farms are received when they are six weeks old. They are housed ten to a cage in air-conditioned rooms (72° F. to 76° F.) with automatically controlled lights, 14 hours on and 10 hours off. The basal diet used in these studies is Purina Laboratory Chow (see description below), which is supplied ad libitum. Water is also allowed ad libitum.
Thirteen days after arrival, the mice are weighed in groups of ten and assigned at random to the different treatments. Twelve days later the mice are weighed again and the experiment terminated. At least three cages (30 mice) of untreated controls are included in each test. Test data are provided in Tables VI, VII, VIII, and IX below wherein data are reported as percent weight gain over controls. Unless otherwise indicated in these tables, all compounds tested were dl-racemic mixtures. The following is a description of the diet to which the growth promoting compounds were added.

| Structure (SMILES) | change in vivo at 400 ppm [%] |
| --- | --- |
| NC(=O)NC1CCCC(=O)c2sccc21 (stereo not shown) [5,6,7,8-tetrahydro-4H-8-oxocyclohepta[b]thien-4-ylurea] | 68.8 |

Same assay, conditions: Mus musculus, feed or water, 288 h, Table VI; 50 ppm in diet

| Structure (SMILES) | change in vivo at 50 ppm [%] |
| --- | --- |
| CCNC(=O)NC1CCCc2sccc21 (stereo not shown) [Table VI: O,H,H,H,H,C2H5, 1-ethyl-3-(4,5,6,7-tetrahydrobenzo[b]thien-4-yl)urea] | 40.3 |
| CNC(=O)NC1CCCc2sccc21 (stereo not shown) [Table VI: O,H,H,H,H,CH3, 1-methyl-3-(4,5,6,7-tetrahydrobenzo[b]thien-4-yl)urea] | 61.8 |

Same assay, conditions: Mus musculus, feed or water, 288 h, Table VI; 200 ppm in diet

| Structure (SMILES) | change in vivo at 200 ppm [%] |
| --- | --- |
| CCNC(=O)NC1CCCc2sccc21 (stereo not shown) [Table VI: O,H,H,H,H,C2H5, 1-ethyl-3-(4,5,6,7-tetrahydrobenzo[b]thien-4-yl)urea] | 87.6 |
| CCCCNC(=O)NC1CCCc2sccc21 (stereo not shown) [Table VI: O,H,H,H,H,n-butyl] | 25 |

Same assay, conditions: Mus musculus, feed or water, 288 h, Table VI; 400 ppm in diet

| Structure (SMILES) | change in vivo at 400 ppm [%] |
| --- | --- |
| O=C(NCc1ccccc1)NC1CCCc2sccc21 (stereo not shown) [Table VI: O,H,H,H,H,CH2C6H5, 1-benzyl-3-(4,5,6,7-tetrahydrobenzo[b]thien-4-yl)urea] | 32.4 |
| CNC(=O)NC1(C)CCCc2sccc21 (stereo not shown) [1-methyl-3-(4-methyl-4,5,6,7-tetrahydrobenzo[b]thien-4-yl)urea] | 39 |
| CC(=O)NC(=O)NC1CCCc2sccc21 (stereo not shown) | -1.4 |
| CCCCCCCCNC(=S)NC1CCCc2sccc21 (stereo not shown) [Table VI: S,H,H,H,H,n-C8H17] | 16 |
| CN(C(N)=O)C1CCCc2sccc21 (stereo not shown) [Table VI: O,H,H,CH3,H, 1-methyl-1-(4,5,6,7-tetrahydrobenzo[b]-thien-4-yl)urea] | 27.2 |
| NC(=O)NC1CCCc2sccc21 (single isomer, unassigned; (-)) [Table VI: O,H,H,H,H,H (levorotatory enantiomorph), (-)-4,5,6,7-tetrahydrobenzo[b]-thien-4-ylurea] | 122 |
| CN(Cc1ccccc1)C(=O)NC1CCCc2sccc21 (stereo not shown) [Table VI: O,H,H,H,CH3,CH2C6H5] | 14 |
| O=C(Nc1ccc(Cl)cc1)NC1CCCc2sccc21 (stereo not shown) | 21 |
| C=CCONC(=O)NC1CCCc2sccc21 (stereo not shown) [Table VI: O,H,H,H,H,OCH2CHCH2] | 5 |
| CCCCN(CCCC)C(=O)NC1CCCc2sccc21 (stereo not shown) [Table VI: O,H,H,H,n-butyl,n-butyl, 1,1-dibutyl-3-(4,5,6,7-tetrahydrobenzo[b]thien-4-yl)urea] | 6 |
| C[n+]1cccc(CNC(=O)NC2CCCc3sccc32)c1 (stereo not shown) | 6 |
| CCNC(=O)NC1CCCc2sccc21 (stereo not shown) [Table VI: O,H,H,H,H,C2H5, 1-ethyl-3-(4,5,6,7-tetrahydrobenzo[b]thien-4-yl)urea] | 87.6 |
| COc1ccc(OC)c(NC(=O)NC2CCCc3sccc32)c1 (stereo not shown) | 32.4 |
| CCCCCCNC(=O)NC1CCCc2scc(C)c21 (stereo not shown) [Table VI: O,H,CH3,H,H,n-hexyl] | 21 |
| C=CCNC(=O)NC1CCCc2sccc21 (stereo not shown) [Table VI: O,H,H,H,H,CH2CHCH2] | 48.4 |
| N#CNC(=O)NC1CCCc2sccc21 (stereo not shown) [Table VI: O,H,H,H,H,CN] | 1 |
| O=C(NCc1ccccn1)NC1CCCc2sccc21 (stereo not shown) | 41 |
| COC(CNC(=O)NC1CCCc2sccc21)OC (stereo not shown) [Table VI: O,H,H,H,H,CH2CH(OCH3)2] | 22 |
| CON(C)C(=O)NC1CCCc2sccc21 (stereo not shown) [Table VI: O,H,H,H,CH3,OCH3, 1-methoxy-1-methyl-3-(4,5,6,7-tetrahydrobenzo[b]thien-4-yl)urea] | 107 |
| CNC(=O)NC1CCCc2sccc21 (stereo not shown) [Table VI: O,H,H,H,H,CH3, 1-methyl-3-(4,5,6,7-tetrahydrobenzo[b]thien-4-yl)urea] | 134 |

| Structure (SMILES) | change in vivo at 400 ppm [%] |
| --- | --- |
| S=C(NC1CC1)NC1CCCc2sccc21 (stereo not shown) | 32 |
| O=C(NC1CC1)NC1CCCc2sccc21 (stereo not shown) | 31 |
| O=C(NCCc1ccccc1)NC1CCCc2sccc21 (stereo not shown) [Table VI: O,H,H,H,H,CH2CH2C6H5, 1-phenethyl-3-(4,5,6,7-tetrahydrobenzo[b]thien-4-yl)urea] | 72.3 |
| CNC(=S)NC1CCCc2sc(C)cc21 (stereo not shown) [Table VI: S,CH3,H,H,CH3,H] | 88.5 |
| O=C(NOCc1ccccc1)NC1CCCc2sccc21 (stereo not shown) [Table VI: O,H,H,H,H,OCH2C6H5, 1-benzyloxy-3-(4,5,6,7-tetrahydrobenzo[b]thien-4-yl)urea] | 7.8 |
| CCC(C)NC(=O)NC1CCCc2sc(C)cc21 (stereo not shown) [Table VI: O,CH3,H,H,2-butyl,H] | 2 |
| O=C(NCc1ccncc1)NC1CCCc2sccc21 (stereo not shown) | 46 |
| O=C(Nc1ccc(Cl)cc1Cl)NC1CCCc2sccc21 (stereo not shown) | 18 |
| C#CCN(CC#C)C(=O)NC1CCCc2sccc21 (stereo not shown) [Table VI: O,H,H,H,CH2CCH,CH2CCH] | 27 |
| COc1ccc(NC(=O)NC2CCCc3sccc32)cc1 (stereo not shown) | 78 |
| NC(=O)NC1CCCc2sc([N+](=O)[O-])cc21 (stereo not shown) [Table VI: O,NO2,H,H,H,H, 2-nitro-4,5,6,7-tetrahydrobenzo[b]thien-4-ylurea] | 17 |
| C#CCNC(=O)NC1CCCc2sccc21 (stereo not shown) [Table VI: O,H,H,H,H,CH2CCH] | 82 |
| O=C(NCc1ccc(Cl)cc1)NC1CCCc2sccc21 (stereo not shown) | 1 |
| O=C(NCc1cccs1)NC1CCCc2sccc21 (stereo not shown) | 39 |
| CCONC(=O)NC1CCCc2sccc21 (stereo not shown) [Table VI: O,H,H,H,H,OC2H5, 1-ethoxy-3-(4,5,6,7-tetrahydrobenzo[b]-thien-4-yl)urea] | 61 |
| NC(=O)NC1CCCc2sc(Cl)cc21 (stereo not shown) [Table VI: O,Cl,H,H,H,H, 2-chloro-4,5,6,7-tetrahydrobenzo[b]thien-4-ylurea] | 4.8 |
| CCCCOc1ccc(NC(=O)NC2CCCc3sccc32)cc1 (stereo not shown) | 9 |
| C#CCN(C)C(=O)NC1CCCc2sccc21 (stereo not shown) [Table VI: O,H,H,H,CH3,CH2CCH] | 29 |
| O=C(Nc1nccs1)NC1CCCc2sccc21 (stereo not shown) | 11 |

Same assay, conditions: Mus musculus, feed or water, 288 h, Table VII; 200 ppm in diet

| Structure (SMILES) | change in vivo at 200 ppm [%] |
| --- | --- |
| CN(C)C(=O)NC1CCC(=O)c2sccc21 (stereo not shown) [Table VII: O,CH3,CH3, 1,1-dimethyl-3-(4,5,6,7-tetrahydro-7-oxobenzo[b]thien-4-yl)urea] | 58.6 |
| CC(C)NC(=O)NC1CCC(=O)c2sccc21 (stereo not shown) [Table VII: O,H,iso-C3H7] | 84 |
| C#CCNC(=O)NC1CCC(=O)c2sccc21 (stereo not shown) [Table VII: O,H,CH2CCH, 1-(2-propynyl)-3-(4,5,6,7-tetrahydro-7-oxobenzo[b]thien-4-yl)urea] | 40.6 |

Same assay, conditions: Mus musculus, feed or water, 288 h, Table VII; 400 ppm in diet

| Structure (SMILES) | change in vivo at 400 ppm [%] |
| --- | --- |
| CNC(=O)NC1CCC(=O)c2sccc21 (stereo not shown) [Table VII: O,H,CH3, 1-methyl-3-(4,5,6,7-tetrahydro-7-oxobenzo[b]thien-4-yl)urea] | 64.8 |
| CNC(=S)NC1CCC(=O)c2sccc21 (stereo not shown) [Table VII: S,H,CH3] | 62.5 |
| NC(=O)NC1CCC(=O)c2sc(Br)cc21 (stereo not shown) [2-bromo-4,5,6,7-tetrahydro-7-oxobenzo[b]thien-4-ylurea] | 35.9 |
| CCCCCCCCNC(=O)NC1CCC(=O)c2sccc21 (stereo not shown) [Table VII: O,H,n-C8H17] | 83.4 |
| C=CCNC(=O)NC1CCC(=O)c2sccc21 (stereo not shown) [Table VII: O,H,CH2CHCH2] | 58.7 |
| COCNC(=O)NC1CCC(=O)c2sccc21 (stereo not shown) [Table VII: O,H,CH2OCH3, 1-(methoxymethyl)-3-(4,5,6,7-tetrahydro-7-oxobenzo[b]thien-4-yl)urea] | 143 |
| CCCCCCCCCCCCNC(=O)NC1CCC(=O)c2sccc21 (stereo not shown) [Table VII: O,H,n-C12H25, 1-n-dodecyl-3-(4,5,6,7-tetrahydro-7-oxobenzo[b]thien-4-yl)urea] | 4.1 |
| CCCCCCCCCCNC(=O)NC1CCC(=O)c2sccc21 (stereo not shown) [Table VII: O,H,n-C10H21] | 15.4 |

Same assay, conditions: Mus musculus, feed or water, 288 h, Table VIII; 50 ppm in diet

| Structure (SMILES) | change in vivo at 50 ppm [%] |
| --- | --- |
| NC(=O)NC1CCC(O)c2sccc21 (single isomer, unassigned; (+)) [Table VIII: O,H,H (dextrorotatory diastereomer, 95% isomer B), (+)-4,5,6,7-tetrahydro-7-hydroxybenzo[b]thien-4-ylurea] | -11.3 |
| C#CCNC(=O)NC1CCC(O)c2sccc21 (stereo not shown) [Table VIII: O,H,CH2CCH, 1-(2-propynyl)-3-(7-hydroxy-4,5,6,7-tetrahydrobenzo[b]thien-4-yl)urea] | 49.2 |

Same assay, conditions: Mus musculus, feed or water, 288 h, Table VIII; 200 ppm in diet

| Structure (SMILES) | change in vivo at 200 ppm [%] |
| --- | --- |
| CC(C)NC(=O)NC1CCC(O)c2sccc21 (stereo not shown) [Table VIII: O,H,iso-C3H7] | 43.9 |
| CON(C)C(=O)NC1CCC(O)c2sccc21 (stereo not shown) [Table VIII: O,CH3,OCH3, 1-methyl-1-methoxy-3-(7-hydroxy-4,5,6,7-tetrahydrobenzo[b]-thien-4-yl)urea] | 60.5 |

Same assay, conditions: Mus musculus, feed or water, 288 h, Table VIII; 400 ppm in diet

| Structure (SMILES) | change in vivo at 400 ppm [%] |
| --- | --- |
| CONC(=O)NC1CCC(O)c2sccc21 (stereo not shown) [Table VIII: O,H,OCH3, 1-methoxy-3-(7-hydroxy-4,5,6,7-tetrahydrobenzo[b]thien-4-yl)urea] | 66.7 |
| CN(C)C(=O)NC1CCC(O)c2sccc21 (stereo not shown) [Table VIII: O,CH3,CH3, 1,1-dimethyl-3-(7-hydroxy-4,5,6,7-tetrahydrobenzo[b]thien-4-yl)urea] | 81.5 |
| CNC(=O)NC1CCC(O)c2sccc21 (stereo not shown) [Table VIII: O,H,CH3, 1-methyl-3-(7-hyroxy-4,5,6,7-tetrahydrobenzo[b]thien-4-yl)urea] | 60.2 |
| CNC(=S)NC1CCC(O)c2sccc21 (stereo not shown) [Table VIII: S,H,CH3] | 85.1 |

Same assay, conditions: Table VIII; 25 ppm in diet

| Structure (SMILES) | & Weight Gain Over Controls [%] |
| --- | --- |
| NC(=O)NC1CCC(O)c2sccc21 (single isomer, unassigned; (+)) [Table VIII: O,H,H (dextrorotatory diastereomer, 90% isomer A), (+)-4,5,6,7-tetrahydro-7-hydroxybenzo[b]thien-4-ylurea] | 3.7 |
